What all share (test): relative viability (nuclei count vs DMSO), 5 days (fraction); higher = more cells survive
Compound in assay [1]: CCOC(=O)CCNc1cc(N2CCc3ccccc3CC2)nc(-c2ccccn2)n1 [GSK-J4] + Cc1nc(NC(=O)N2CCC[C@H]2C(N)=O)sc1-c1ccnc(C(C)(C)C(F)(F)F)c1 [Alpelisib] (partner 2 µM)
Summed up:
(§1)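 Relative viability divides the nuclei count in treated wells by that in vehicle wells. Lung cancer cell lines were seeded in 1536-well plates, dosed by pin tool the next day, and fixed and stained after 5 days in one step with final 0.05% Triton X-100, 1% formaldehyde and 1 ug/ml Hoechst. Dosing was a single drug or a fixed anchor-drug dose plus five library-drug doses (not always all listed) in √10 steps, and values are medians of duplicate plates imaged at 4×.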

Compound in assay [2]: CCOC(=O)CCNc1cc(N2CCc3ccccc3CC2)nc(-c2ccccn2)n1 [GSK-J4] + Nc1ncn([C@H]2C[C@H](O)[C@@H](CO)O2)c(=O)n1 [Decitabine] (partner 2 µM)
Summed up:
as §1

Compound in assay [3]: CCOC(=O)CCNc1cc(N2CCc3ccccc3CC2)nc(-c2ccccn2)n1 [GSK-J4] + O=C(CCCCCCC(=O)Nc1ccccc1)NO [Vorinostat] (partner 1 µM)
The gist of the method:
as §1

Compound in assay [4]: CN1CCC(CC1)OC2=CC(=C(C=C2)NC3=NC=C4C(=N3)N(C(=O)N4C)C5CCCC5)OC [AZ3146] + CS(=O)(=O)CCNCc1ccc(-c2ccc3ncnc(Nc4ccc(OCc5cccc(F)c5)c(Cl)c4)c3c2)o1 [Lapatinib] (partner 2 µM)
Summed up:
as §1

As to UMC-11, the relative viability was determined as 0.932 in assay [1] (first compound 0.5 µM); 0.856 in assay [1] (first compound 1.581 µM); 1.06 in assay [1] (first compound 5 µM); 0.938 in assay [1] (first compound 15.81 µM); 0.607 in assay [1] (first compound 50 µM); 0.93 in assay [2] (first compound 0.5 µM). Further, the relative viability in assay [2] (first compound 1.581 µM) turned out to be 0.642; in assay [2] (first compound 15.81 µM), 0.582; in assay [2] (first compound 50 µM), 0.343; in assay [3] (first compound 0.5 µM), 0.418; in assay [3] (first compound 1.581 µM) it was 0.364; in assay [3] (first compound 5 µM), 0.492. In addition, the relative viability in assay [3] (first compound 15.81 µM) turned out to be 0.437; in assay [3] (first compound 50 µM), 0.187; in assay [4] (first compound 0.08 µM) it was 0.793; in assay [4] (first compound 0.253 µM) it was 0.963; in assay [4] (first compound 0.8 µM), 0.99; in assay [4] (first compound 2.53 µM) it was 0.978. In assay [4] (first compound 8 µM), the relative viability amounted to 0.531.

The values are drawn from the supplement of paper PMC10307832.
